Experimental findings from patent US6525059B1, “Substituted pyrazoles as p38 kinase inhibitors” (G. D. Searle & Company, priority 1998, dated 2003) are described below.

The target of test [1] is T1, human GST-p38 kinase alpha (Homo sapiens, UniProt Q16539).
T1 construct: The coding region of the human p38a cDNA was obtained by PCR-amplification from RNA isolated from the human monocyte cell line THP.1; made in house; host or cells: E. coli DH10B
The test is described as follows: p38 kinase in vitro assay, second format, phosphorylation of EGFRP with 33P-ATP. In kind it is biochemical. As to conditions: read-out: p38α Kinase Assay IC50. The essentials:
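Activated human GST-p38α (pre-activated with GST-MKK6, 1 h, 30 °C) phosphorylates EGFR 21-mer peptide (200 μM) with 50 μM ATP plus γ-33P-ATP, pH 7.5, 60 min at room temperature. Unreacted ATP removed by AG 1×8 resin; supernatant scintillation-counted.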

The test system of the next test is human TNF. The test is described as follows: TNF inhibition: human whole blood assay. The test is classed as cell-based. As to conditions: Homo sapiens, LPS, read-out: TNF Inhibition-Human Whole Blood Assay.
The next test concerns TNF-α. The test is described as follows: Rat assay: LPS-challenged rats, serum TNF-α by ELISA. The test is classed as in vivo. As to conditions: Rattus norvegicus, po; for inhibition in vivo at 10 mg/kg: Table 8, dose 10.0 mg/kg. For orientation: An ELISA detects its analyte on a solid surface through an enzyme-linked reagent.
The mark [2] stands for this setting: Table 9, dose 1 mg/kg, read-out: Rat LPS Assay % Inhibition.
Where [3] appears, read: Table 9, dose 5 mg/kg, read-out: Rat LPS Assay % Inhibition.
The mark [4] stands for this setting: Table 8, dose 1.0 mg/kg, read-out: Rat LPS Assay % Inhibition.
[5] abbreviates: Table 8, dose 5.0 mg/kg, read-out: Rat LPS Assay % Inhibition.

Molecules are shown by their SMILES. “And” between values parts separate entries of the source, which are not always exact repeats. Equal entries are not always repeated. Structures can show the parent of a compound that is named as a salt. Where two headings read alike, the source gives them in different places.

T1 sequence (Q16539 whole entry): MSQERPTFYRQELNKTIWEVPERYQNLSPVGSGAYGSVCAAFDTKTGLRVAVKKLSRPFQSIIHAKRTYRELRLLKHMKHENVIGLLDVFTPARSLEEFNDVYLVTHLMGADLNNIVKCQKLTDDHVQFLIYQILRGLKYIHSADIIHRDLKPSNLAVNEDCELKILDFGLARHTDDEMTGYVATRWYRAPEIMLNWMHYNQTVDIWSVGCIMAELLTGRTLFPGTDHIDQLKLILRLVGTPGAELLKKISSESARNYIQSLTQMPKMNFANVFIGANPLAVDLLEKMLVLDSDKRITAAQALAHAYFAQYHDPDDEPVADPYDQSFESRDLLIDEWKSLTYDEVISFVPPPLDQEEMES

Turning to `CCN1CCCCC1CCNc1cc(-c2c[nH]nc2-c2ccc(F)cc2)ccn1` (stereo not shown) [Example A-358, N-[2-(1-ethyl-2-piperidinyl)ethyl]-4-[3-(4-fluorophenyl)-1H-pyrazol-4-yl]-2-pyridinamine], the IC50 in test [1] (Table 9, 10% DMSO) was 230 nM; in the test on human TNF (Table 9, human whole blood), 4000 nM. Moreover, the inhibition in vivo at 20 mg/kg in the test with TNF-α (Table 9, dose 20 mg/kg) amounted to 71%.
On to `CC(C)C(CO)Nc1cc(-c2c[nH]nc2-c2ccc(F)cc2)ccn1` (stereo not shown) [Example A-355, 2-[[4-[3-(4-fluorophenyl)-1H-pyrazol-4-yl]-2-pyridinyl]amino]-3-methyl-1-butanol], for which the IC50 in test [1] (Table 9, 10% DMSO) stood at 50 nM; in the test with human TNF (Table 9, human whole blood), 95 nM. In the test with TNF-α (Table 9, dose 26 mg/kg), the inhibition in vivo at 26 mg/kg came out at 0%.
On to `OC[C@H](Cc1ccccc1)Nc1cc(-c2c[nH]nc2-c2ccc(F)cc2)ccn1` [Example A-363, (βS)-β-[[4-[3-(4-fluorophenyl)-1H-pyrazol-4-yl]-2-pyridinyl]amino]benzene propanol], for which the IC50 in test [1] (Table 9, 10% DMSO) came to 1500 nM; in the test with human TNF (Table 9, human whole blood) it was 25000 nM. The inhibition in vivo at 20 mg/kg with TNF-α (Table 9, dose 20 mg/kg) worked out at 6%.
Turning to `Fc1ccc(-c2[nH]nc(NC3CCNCC3)c2-c2ccncc2)cc1` [Example A-339, N-[5-(4-fluorophenyl)-4-(4-pyridinyl)-1H-pyrazol-3-yl]-4-piperidinamine, trihydrochloride], the IC50 came to 52 nM in test [1] (Table 8, 10% DMSO) and 56 nM in the test on human TNF (Table 8, human whole blood).
In the case of `Fc1ccc(-c2n[nH]c(N3CCSCC3)c2-c2ccncc2)cc1` [Example A-438], the IC50 in test [1] (Table 10, 10% DMSO, @ 1.0 hour) is 560 nM; in the test on human TNF (Table 10, human whole blood) it was greater than 25000 nM. In addition, in the test on TNF-α (Table 10, dose 20.0 mg/kg), the inhibition in vivo at 20 mg/kg came to 49%.
Turning to `Clc1ccc(-c2[nH]nc(N3CCN(c4ccccc4)CC3)c2-c2ccncc2)cc1` [Example A-335, 1-[5-(4-chlorophenyl)-4-(4-pyridinyl)-1H-pyrazol-3-yl]-4-phenylpiperazine], the IC50 is 89900 nM in test [1] (Table 8, 10% DMSO) and greater than 25000 nM in the test with human TNF (Table 8, human whole blood).
For the molecule `CN1CCC(Nc2n[nH]c(-c3ccc(F)cc3)c2-c2ccncc2)CC1` [Example A-338, N-[5-(4-fluorophenyl)-4-(pyridinyl)-1H-pyrazol-3-yl]-1-methyl-4-piperidinamine], the IC50 in test [1] (Table 8, 10% DMSO) is 18 nM; in the test with human TNF (Table 8, human whole blood), 59 nM.
For `Fc1ccc(-c2n[nH]c(CC3CCNCC3)c2-c2ccncc2)cc1` [Example A-315, 4-[3-(4-fluorophenyl)-5-(4-piperidinylmethyl)-1H-pyrazol-4-yl]pyridine], the IC50 came to 49 nM in test [1] (Table 8, 10% DMSO) and 1750 nM in the test with human TNF (Table 8, human whole blood).
Regarding `Clc1ccc(-c2n[nH]c(OC3CCNCC3)c2-c2ccncc2)cc1` [Example A-442], the IC50 in test [1] (Table 10, 10% DMSO, @ 1.0 hour) amounted to 22 nM; with human TNF (Table 10, human whole blood), 160 nM. In addition, in the test with TNF-α (Table 10, dose 1.0 mg/kg, read-out: Rat LPS Assay % Inhibition), the inhibition in vivo at 1 mg/kg came to 51%. Further, the inhibition in vivo at 5 mg/kg in the test with TNF-α (Table 10, dose 5.0 mg/kg, read-out: Rat LPS Assay % Inhibition) is 56%. Besides, the inhibition in vivo at 20 mg/kg with TNF-α (Table 10, dose 20.0 mg/kg) was found to be 92%.
In the case of `CCOC(=O)N1CCN(c2[nH]nc(-c3ccccc3)c2-c2ccncc2)CC1` [Example A-371, ethyl 4-[5-phenyl-4-(4-pyridinyl)-1H-pyrazol-3-yl]-1-piperazinecarboxylate], the IC50 in test [1] (Table 9, 10% DMSO) came to 7900 nM; with human TNF (Table 9, human whole blood), 25000 nM. In addition, the inhibition in vivo at 20 mg/kg in the test with TNF-α (Table 9, dose 20 mg/kg) was 52%.
Turning to `C[C@@H](O)CNc1cc(-c2c[nH]nc2-c2ccc(F)cc2)ccn1` [Example A-368, (2R)-1-[[4-[3-(4-fluorophenyl)-1H-pyrazol-4-yl]-2-pyridinyl]amino]-2-propanol], the IC50 came out at 42 nM in test [1] (Table 9, 10% DMSO) and 660 nM in the test with human TNF (Table 9, human whole blood). Moreover, the inhibition in vivo at 1 mg/kg in the test with TNF-α (setting [2]) worked out at 28%. The inhibition in vivo at 5 mg/kg in the test on TNF-α (setting [3]) amounted to 41%. Also, in the test on TNF-α (Table 9, dose 20 mg/kg), the inhibition in vivo at 20 mg/kg is 88%.
On to `CCN(CC)CCNc1cc(-c2c[nH]nc2-c2ccc(F)cc2)ccn1` [Example A-374, N,N-diethyl-N′-[4-[3-(4-fluorophenyl)-1H-pyrazol-4-yl]-2-pyridinyl]-1,2-ethanediamine], for which the IC50 was 380 nM in test [1] (Table 9, 10% DMSO) and 310 nM with human TNF (Table 9, human whole blood). Further, the inhibition in vivo at 1 mg/kg with TNF-α (setting [2]) was determined as 3%. The inhibition in vivo at 5 mg/kg with TNF-α (setting [3]) was found to be 0%. Also, the inhibition in vivo at 20 mg/kg in the test on TNF-α (Table 9, dose 20 mg/kg) came to 88%.
Regarding `Clc1ccc(-c2[nH]nc(NC3CCNCC3)c2-c2ccncc2)cc1` [Example A-332, N-[5-(4-chlorophenyl)-4-(4-pyridinyl)-3H-pyrazol-3-yl]-4-piperidineamine, trihydrochloride, monohydrate], the IC50 in test [1] (Table 8, 10% DMSO) was 15 nM and < 100 nM; in the test with human TNF (Table 8, human whole blood), 450 nM. Further, the inhibition in vivo at 1 mg/kg in the test on TNF-α (setting [4]) came to 33%. Besides, the inhibition in vivo at 3 mg/kg in the test with TNF-α (Table 8, dose 3.0 mg/kg, read-out: Rat LPS Assay % Inhibition) was 26%. In the test on TNF-α (setting [5]), the inhibition in vivo at 5 mg/kg stood at 25%. In addition, the inhibition in vivo at 10 mg/kg in the test with TNF-α is -85%.
Turning to `CCN(CC)CCCNc1n[nH]c(-c2ccc(F)cc2)c1-c1ccncc1` [Example A-364, N,N-diethyl-N′-[5-(4-fluorophenyl)-4-(4-pyridinyl)-1H-pyrazol-3-yl]-1,3-propanediamine], the IC50 in test [1] (Table 9, 10% DMSO) turned out to be 490 nM; in the test with human TNF (Table 9, human whole blood) it was 255 nM. Besides, in the test with TNF-α (Table 9, dose 20 mg/kg), the inhibition in vivo at 20 mg/kg stood at 79%.
As to `C[C@H](O)CNc1cc(-c2c[nH]nc2-c2ccc(F)cc2)ccn1` [Example A-370, (2S)-1-[[4-[3-(4-fluorophenyl)-1H-pyrazol-4-yl]-2-pyridinyl]amino]-2-propanol], the IC50 came to 160 nM in test [1] (Table 9, 10% DMSO) and 1920 nM in the test with human TNF (Table 9, human whole blood). For the same molecule, the inhibition in vivo at 5 mg/kg in the test with TNF-α (setting [3]) was 46%. In addition, the inhibition in vivo at 20 mg/kg in the test on TNF-α (Table 9, dose 20 mg/kg) was 90%.
With `CCN(CC)CC(Nc1cc(-c2c[nH]nc2-c2ccc(F)cc2)ccn1)c1ccccc1` (stereo not shown) [Example A-353, N2,N2-diethyl-N1-[4-[3-(4-fluorophenyl)-1H-pyrazol-4-yl]-2-pyridinyl]-1-phenyl-1,2-ethanediamine], the IC50 in test [1] (Table 9, 10% DMSO) was 37 nM; in the test with human TNF (Table 9, human whole blood) it was 5300 nM. The inhibition in vivo at 20 mg/kg in the test on TNF-α (Table 9, dose 20 mg/kg) turned out to be 49%.
On the same counts, the results for `OC[C@@H](Nc1cc(-c2c[nH]nc2-c2ccc(F)cc2)ccn1)c1ccccc1` [Example A-362, (βS)-β-[[4-[3-(4-fluorophenyl)-1H-pyrazol-4-yl]-2-pyridinyl]amino]benzene ethanol] are 690 nM, 5500 nM and 0%.
As to `CCOC(=O)N1CCC(Nc2n[nH]c(-c3ccc(F)cc3)c2-c2ccncc2)CC1` [Example A-337, Ethyl 4-[[5-(4-fluorophenyl)-4-(4-pyridinyl)-1H-pyrazol-3-yl]amino]-1-piperidinecarboxylate, monohydrate], the IC50 in test [1] (Table 8, 10% DMSO) was 1350 nM; in the test with human TNF (Table 8, human whole blood), greater than 25000 nM.
Take `CC(C)C[C@@H](CO)Nc1cc(-c2c[nH]nc2-c2ccc(F)cc2)ccn1` [Example A-354, (2S)-2-[[4-[3-(4-fluorophenyl)-1H-pyrazol-4-yl]-2-pyridinyl]amino]-4-methyl-1-pentanol]: the IC50 in test [1] (Table 9, 10% DMSO) came to 220 nM; in the test with human TNF (Table 9, human whole blood), 25000 nM. Besides, in the test with TNF-α (Table 9, dose 20 mg/kg), the inhibition in vivo at 20 mg/kg was determined as 0%.
With `CN1CCC(Nc2n[nH]c(-c3ccc(Cl)cc3)c2-c2ccncc2)CC1` [Example A-334, N-[5-(4-chlorophenyl)-4-(4-pyridinyl)-1H-pyrazol-3-yl]-1-methyl-4-piperidinamine], the IC50 in test [1] (Table 8, 10% DMSO) stood at 70 nM; with human TNF (Table 8, human whole blood) it was 220 nM. The inhibition in vivo at 1 mg/kg in the test on TNF-α (setting [4]) was 36%. For the same molecule, the inhibition in vivo at 5 mg/kg with TNF-α (setting [5]) was found to be 57%. Besides, the inhibition in vivo at 20 mg/kg in the test with TNF-α (Table 8, dose 20.0 mg/kg) turned out to be 95%.
Take `CS(=O)(=O)c1[nH]nc(-c2ccc(F)cc2)c1-c1ccncc1` [Example A-437, 3-(4-fluorophenyl)-5-(methylsulfonyl)-4-pyridin-4-yl-1H-pyrazole]: the IC50 was 7760 nM in test [1] (Table 10, 10% DMSO, @ 1.0 hour) and greater than 25000 nM with human TNF (Table 10, human whole blood).
On to `CN1CCN(c2n[nH]c(-c3ccc(F)cc3)c2-c2ccncc2)CC1` [Example A-317, 1-[5-(4-fluorophenyl)-4-(4-pyridinyl)-1H-pyrazol-3-yl]-4-methylpiperazine, dihydrate], for which the IC50 in test [1] (Table 8, 10% DMSO) worked out at 70 nM; in the test on human TNF (Table 8, human whole blood), 450 nM. Further, the inhibition in vivo at 10 mg/kg with TNF-α turned out to be 69%.
`Fc1ccc(-c2[nH]nc(CN3CCNCC3)c2-c2ccncc2)cc1` [A-314, Step 2, 1-[[5-(4-fluorophenyl)-4-(4-pyridinyl)-1H-pyrazol-3-yl]methyl]-4-piperazine]: the IC50 in test [1] (Table 8, 10% DMSO) turned out to be 32 nM; in the test with human TNF (Table 8, human whole blood), 470 nM. Also, the inhibition in vivo at 1 mg/kg with TNF-α (setting [4]) came to 0%. Moreover, the inhibition in vivo at 5 mg/kg in the test with TNF-α (setting [5]) amounted to 53%. Also, the inhibition in vivo at 20 mg/kg in the test on TNF-α (Table 8, dose 20.0 mg/kg) turned out to be 85%.
Take `CCN(CC)CCCC(C)Nc1[nH]nc(-c2ccc(F)cc2)c1-c1ccncc1` (stereo not shown) [Example A-359, N1,N1,-diethyl-N4-[5-(4-fluorophenyl)-4-(4-pyridinyl)-1H-pyrazol-3-yl]-1,4-pentanediamine]: the IC50 in test [1] (Table 9, 10% DMSO) turned out to be 300 nM; in the test on human TNF (Table 9, human whole blood), 1000 nM. Moreover, the inhibition in vivo at 20 mg/kg in the test with TNF-α (Table 9, dose 20 mg/kg) amounted to 70%.
As to `Clc1ccc(-c2n[nH]c(SCCN3CCCC3)c2-c2ccncc2)cc1` [Example A-460], the IC50 in test [1] (Table 10, 10% DMSO, @ 1.0 hour) was 1840 nM; in the test with human TNF (Table 10, human whole blood), 8910 nM.
